From ChEMBL document CHEMBL3414495, “Multi-target tacrine-coumarin hybrids: cholinesterase and monoamine oxidase B inhibition properties against Alzheimer's disease” (Eur J Med Chem, 2015)

Biological target: T1, Amine oxidase [flavin-containing] B (Homo sapiens, UniProt P27338)
T1 sequence (P27338 whole entry): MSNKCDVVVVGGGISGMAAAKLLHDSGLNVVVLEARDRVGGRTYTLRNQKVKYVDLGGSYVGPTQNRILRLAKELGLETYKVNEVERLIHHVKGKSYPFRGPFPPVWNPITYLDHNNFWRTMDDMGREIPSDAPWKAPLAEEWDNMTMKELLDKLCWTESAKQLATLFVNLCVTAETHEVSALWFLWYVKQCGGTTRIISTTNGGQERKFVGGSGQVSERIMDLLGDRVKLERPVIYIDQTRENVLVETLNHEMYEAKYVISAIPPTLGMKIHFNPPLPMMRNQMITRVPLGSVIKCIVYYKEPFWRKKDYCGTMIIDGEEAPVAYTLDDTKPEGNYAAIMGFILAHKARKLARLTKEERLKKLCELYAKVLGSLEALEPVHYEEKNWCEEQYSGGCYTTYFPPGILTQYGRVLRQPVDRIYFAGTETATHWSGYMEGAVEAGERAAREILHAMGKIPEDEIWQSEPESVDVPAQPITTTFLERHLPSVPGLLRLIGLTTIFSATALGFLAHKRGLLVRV
Experiment: not given
Settings: not given; call rule not given here

Compound	IC50
Cc1cc2ccc(OCCN3CCN(CCCNc4c5c(nc6ccccc46)CCCC5)CC3)cc2oc1=O	540 nM
O=c1cc(C(F)(F)F)c2ccc(OCCN3CCN(CCCNc4c5c(nc6ccccc46)CCCC5)CC3)cc2o1	28800 nM
O=c1ccc2ccc(OCCCN3CCN(CCNc4c5c(nc6ccccc46)CCCC5)CC3)cc2o1	2370 nM
COc1cc(=O)oc2cc(OCCN3CCN(CCCNc4c5c(nc6ccccc46)CCCC5)CC3)ccc12	5770 nM
O=c1ccc2ccc(OCCCCN3CCN(CCNc4c5c(nc6ccccc46)CCCC5)CC3)cc2o1	780 nM
O=c1ccc2ccc(OCCCCN3CCN(CCCNc4c5c(nc6ccccc46)CCCC5)CC3)cc2o1	3450 nM
O=c1ccc2ccc(OCCCN3CCN(CCCNc4c5c(nc6ccccc46)CCCC5)CC3)cc2o1	2260 nM
Nc1cc(=O)oc2cc(OCCN3CCN(CCCNc4c5c(nc6ccccc46)CCCC5)CC3)ccc12	38000 nM
O=c1ccc2ccc(OCCN3CCN(CCCNc4c5c(nc6ccccc46)CCCC5)CC3)cc2o1	2000 nM

Biological target: T2, Amine oxidase [flavin-containing] A (Homo sapiens, UniProt P21397)
T2 sequence (P21397 whole entry): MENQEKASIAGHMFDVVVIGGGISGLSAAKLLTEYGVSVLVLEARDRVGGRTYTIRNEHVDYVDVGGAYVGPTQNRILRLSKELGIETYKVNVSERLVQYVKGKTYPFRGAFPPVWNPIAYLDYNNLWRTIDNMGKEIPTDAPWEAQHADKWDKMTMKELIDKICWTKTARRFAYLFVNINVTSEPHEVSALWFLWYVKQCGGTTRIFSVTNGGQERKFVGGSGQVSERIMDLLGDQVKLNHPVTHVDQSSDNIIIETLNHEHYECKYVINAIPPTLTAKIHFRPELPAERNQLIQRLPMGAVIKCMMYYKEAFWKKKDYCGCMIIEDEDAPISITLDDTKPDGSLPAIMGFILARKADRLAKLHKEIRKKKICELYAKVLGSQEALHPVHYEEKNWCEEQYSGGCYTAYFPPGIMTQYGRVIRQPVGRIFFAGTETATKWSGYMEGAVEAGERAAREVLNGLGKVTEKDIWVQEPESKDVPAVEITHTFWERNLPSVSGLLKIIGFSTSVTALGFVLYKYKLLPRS
Experiment: Inhibition of human MAO-A using p-tyramine as substrate assessed as H2O2 production at 200 uM by amplex red assay
Settings: not given

Compound	inhibition (INH)
O=c1ccc2ccc(OCCCN3CCN(CCNc4c5c(nc6ccccc46)CCCC5)CC3)cc2o1	Not Active
O=c1ccc2ccc(OCCCCN3CCN(CCNc4c5c(nc6ccccc46)CCCC5)CC3)cc2o1	Not Active
O=c1ccc2ccc(OCCCCN3CCN(CCCNc4c5c(nc6ccccc46)CCCC5)CC3)cc2o1	Not Active
O=c1ccc2ccc(OCCCN3CCN(CCCNc4c5c(nc6ccccc46)CCCC5)CC3)cc2o1	Not Active
O=c1ccc2ccc(OCCN3CCN(CCCNc4c5c(nc6ccccc46)CCCC5)CC3)cc2o1	Not Active

Biological target: T2, Amine oxidase [flavin-containing] A
Experiment: Inhibition of human MAO-A using p-tyramine as substrate assessed as H2O2 production at 100 uM by amplex red assay
Settings: not given

Compound	inhibition (INH)
Cc1cc2ccc(OCCN3CCN(CCCNc4c5c(nc6ccccc46)CCCC5)CC3)cc2oc1=O	Not Active
O=c1cc(C(F)(F)F)c2ccc(OCCN3CCN(CCCNc4c5c(nc6ccccc46)CCCC5)CC3)cc2o1	Not Active
COc1cc(=O)oc2cc(OCCN3CCN(CCCNc4c5c(nc6ccccc46)CCCC5)CC3)ccc12	Not Active
Nc1cc(=O)oc2cc(OCCN3CCN(CCCNc4c5c(nc6ccccc46)CCCC5)CC3)ccc12	Not Active
O=c1cc(-c2ccccc2)c2ccc(OCCN3CCN(CCCNc4c5c(nc6ccccc46)CCCC5)CC3)cc2o1	Not Active

Biological target: T1, Amine oxidase [flavin-containing] B
Experiment: Inhibition of human MAO-B using p-tyramine as substrate assessed as H2O2 production at 200 uM by amplex red assay
Settings: not given

Compound	inhibition (INH)
O=c1cc(-c2ccccc2)c2ccc(OCCN3CCN(CCCNc4c5c(nc6ccccc46)CCCC5)CC3)cc2o1	Not Active

Species: Homo sapiens
Experiment: Selectivity index, ratio of IC50 for human MAO-A to IC50 for human MAO-B
Settings: not given

Compound	Ratio IC50
Cc1cc2ccc(OCCN3CCN(CCCNc4c5c(nc6ccccc46)CCCC5)CC3)cc2oc1=O	> 185
O=c1cc(C(F)(F)F)c2ccc(OCCN3CCN(CCCNc4c5c(nc6ccccc46)CCCC5)CC3)cc2o1	> 3.48
O=c1ccc2ccc(OCCCN3CCN(CCNc4c5c(nc6ccccc46)CCCC5)CC3)cc2o1	> 84.4
COc1cc(=O)oc2cc(OCCN3CCN(CCCNc4c5c(nc6ccccc46)CCCC5)CC3)ccc12	> 17.3
O=c1ccc2ccc(OCCCCN3CCN(CCNc4c5c(nc6ccccc46)CCCC5)CC3)cc2o1	> 256
O=c1ccc2ccc(OCCCCN3CCN(CCCNc4c5c(nc6ccccc46)CCCC5)CC3)cc2o1	> 58
O=c1ccc2ccc(OCCCN3CCN(CCCNc4c5c(nc6ccccc46)CCCC5)CC3)cc2o1	> 88.5
Nc1cc(=O)oc2cc(OCCN3CCN(CCCNc4c5c(nc6ccccc46)CCCC5)CC3)ccc12	> 2.63
O=c1ccc2ccc(OCCN3CCN(CCCNc4c5c(nc6ccccc46)CCCC5)CC3)cc2o1	> 100

Biological target: T1, Amine oxidase [flavin-containing] B
Experiment: Inhibition of MAO-B (unknown origin)
Settings: not given

Compound	IC50
Cc1c(C)c2ccc(OCc3nnc(C(C)C)s3)cc2oc1=O [ATIBEPRONE]	0.9 nM

Biological target: Acetylcholinesterase (Electrophorus electricus, UniProt O42275)
Experiment: not given
Settings: not given

Acetylcholinesterase, sequence (O42275 whole entry): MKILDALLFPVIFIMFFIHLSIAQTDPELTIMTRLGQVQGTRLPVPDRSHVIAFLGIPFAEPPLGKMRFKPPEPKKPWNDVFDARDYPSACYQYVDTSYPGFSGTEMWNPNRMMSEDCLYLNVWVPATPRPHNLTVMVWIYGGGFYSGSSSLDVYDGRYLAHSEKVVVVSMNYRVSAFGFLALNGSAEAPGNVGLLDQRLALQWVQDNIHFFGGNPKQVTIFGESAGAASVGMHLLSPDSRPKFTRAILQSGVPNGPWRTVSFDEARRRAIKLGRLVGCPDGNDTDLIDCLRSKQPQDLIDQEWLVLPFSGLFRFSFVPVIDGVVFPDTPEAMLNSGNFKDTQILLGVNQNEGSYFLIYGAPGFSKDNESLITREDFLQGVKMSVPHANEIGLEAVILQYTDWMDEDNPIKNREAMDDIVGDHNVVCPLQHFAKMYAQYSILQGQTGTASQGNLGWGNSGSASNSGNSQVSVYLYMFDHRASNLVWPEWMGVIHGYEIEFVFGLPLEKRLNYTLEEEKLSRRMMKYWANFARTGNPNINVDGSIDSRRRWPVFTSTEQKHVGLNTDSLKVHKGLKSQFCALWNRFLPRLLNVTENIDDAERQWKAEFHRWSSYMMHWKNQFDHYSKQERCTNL

Compound	IC50
Cc1cc2ccc(OCCN3CCN(CCCNc4c5c(nc6ccccc46)CCCC5)CC3)cc2oc1=O	56.6 nM
O=c1cc(C(F)(F)F)c2ccc(OCCN3CCN(CCCNc4c5c(nc6ccccc46)CCCC5)CC3)cc2o1	67 nM
O=c1ccc2ccc(OCCCN3CCN(CCNc4c5c(nc6ccccc46)CCCC5)CC3)cc2o1	48.4 nM
COc1cc(=O)oc2cc(OCCN3CCN(CCCNc4c5c(nc6ccccc46)CCCC5)CC3)ccc12	44.7 nM
O=c1ccc2ccc(OCCCCN3CCN(CCNc4c5c(nc6ccccc46)CCCC5)CC3)cc2o1	92.1 nM
O=c1ccc2ccc(OCCCCN3CCN(CCCNc4c5c(nc6ccccc46)CCCC5)CC3)cc2o1	36 nM
O=c1ccc2ccc(OCCCN3CCN(CCCNc4c5c(nc6ccccc46)CCCC5)CC3)cc2o1	24.2 nM
Nc1cc(=O)oc2cc(OCCN3CCN(CCCNc4c5c(nc6ccccc46)CCCC5)CC3)ccc12	38.7 nM
O=c1ccc2ccc(OCCN3CCN(CCCNc4c5c(nc6ccccc46)CCCC5)CC3)cc2o1	17.7 nM
O=c1cc(-c2ccccc2)c2ccc(OCCN3CCN(CCCNc4c5c(nc6ccccc46)CCCC5)CC3)cc2o1	195 nM

Biological target: Cholinesterase (Equus caballus, UniProt P81908)
Experiment: not given
Settings: not given

Cholinesterase, sequence (P81908 whole entry): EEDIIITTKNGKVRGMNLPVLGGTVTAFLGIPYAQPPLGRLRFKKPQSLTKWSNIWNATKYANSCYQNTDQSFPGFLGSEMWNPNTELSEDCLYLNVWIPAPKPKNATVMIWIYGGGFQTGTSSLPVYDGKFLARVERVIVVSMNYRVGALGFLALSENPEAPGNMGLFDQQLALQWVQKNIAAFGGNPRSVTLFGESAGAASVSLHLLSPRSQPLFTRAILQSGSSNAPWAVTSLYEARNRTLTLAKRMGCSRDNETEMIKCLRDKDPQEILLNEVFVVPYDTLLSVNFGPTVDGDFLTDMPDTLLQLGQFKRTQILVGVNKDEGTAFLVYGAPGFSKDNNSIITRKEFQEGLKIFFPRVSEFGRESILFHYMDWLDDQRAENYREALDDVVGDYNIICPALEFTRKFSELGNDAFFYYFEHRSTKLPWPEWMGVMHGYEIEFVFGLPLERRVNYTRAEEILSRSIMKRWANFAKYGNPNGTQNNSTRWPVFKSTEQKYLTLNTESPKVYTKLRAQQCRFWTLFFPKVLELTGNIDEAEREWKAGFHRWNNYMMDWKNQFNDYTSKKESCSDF

Compound	IC50
Cc1cc2ccc(OCCN3CCN(CCCNc4c5c(nc6ccccc46)CCCC5)CC3)cc2oc1=O	55 nM
O=c1cc(C(F)(F)F)c2ccc(OCCN3CCN(CCCNc4c5c(nc6ccccc46)CCCC5)CC3)cc2o1	149 nM
O=c1ccc2ccc(OCCCN3CCN(CCNc4c5c(nc6ccccc46)CCCC5)CC3)cc2o1	16.1 nM
COc1cc(=O)oc2cc(OCCN3CCN(CCCNc4c5c(nc6ccccc46)CCCC5)CC3)ccc12	116 nM
O=c1ccc2ccc(OCCCCN3CCN(CCNc4c5c(nc6ccccc46)CCCC5)CC3)cc2o1	20.9 nM
O=c1ccc2ccc(OCCCCN3CCN(CCCNc4c5c(nc6ccccc46)CCCC5)CC3)cc2o1	23 nM
O=c1ccc2ccc(OCCCN3CCN(CCCNc4c5c(nc6ccccc46)CCCC5)CC3)cc2o1	31.6 nM
Nc1cc(=O)oc2cc(OCCN3CCN(CCCNc4c5c(nc6ccccc46)CCCC5)CC3)ccc12	70.7 nM
O=c1ccc2ccc(OCCN3CCN(CCCNc4c5c(nc6ccccc46)CCCC5)CC3)cc2o1	38 nM
O=c1cc(-c2ccccc2)c2ccc(OCCN3CCN(CCCNc4c5c(nc6ccccc46)CCCC5)CC3)cc2o1	216 nM

Test system: not listed separately
Experiment: in vitro
Settings: PAMPA
Description: Permeability of the compound after 16 hrs by PAMPA

Compound	Papp at 16 h
Cc1cc2ccc(OCCN3CCN(CCCNc4c5c(nc6ccccc46)CCCC5)CC3)cc2oc1=O	2.95 ×10⁻⁶ cm/s
O=c1cc(C(F)(F)F)c2ccc(OCCN3CCN(CCCNc4c5c(nc6ccccc46)CCCC5)CC3)cc2o1	5.58 ×10⁻⁶ cm/s
O=c1ccc2ccc(OCCCN3CCN(CCNc4c5c(nc6ccccc46)CCCC5)CC3)cc2o1	3.43 ×10⁻⁶ cm/s
COc1cc(=O)oc2cc(OCCN3CCN(CCCNc4c5c(nc6ccccc46)CCCC5)CC3)ccc12	1.96 ×10⁻⁶ cm/s
O=c1ccc2ccc(OCCCCN3CCN(CCNc4c5c(nc6ccccc46)CCCC5)CC3)cc2o1	5.23 ×10⁻⁶ cm/s
O=c1ccc2ccc(OCCCCN3CCN(CCCNc4c5c(nc6ccccc46)CCCC5)CC3)cc2o1	2.04 ×10⁻⁶ cm/s
O=c1ccc2ccc(OCCCN3CCN(CCCNc4c5c(nc6ccccc46)CCCC5)CC3)cc2o1	1.45 ×10⁻⁶ cm/s
Nc1cc(=O)oc2cc(OCCN3CCN(CCCNc4c5c(nc6ccccc46)CCCC5)CC3)ccc12	0.78 ×10⁻⁶ cm/s
O=c1ccc2ccc(OCCN3CCN(CCCNc4c5c(nc6ccccc46)CCCC5)CC3)cc2o1	1.21 ×10⁻⁶ cm/s
O=c1cc(-c2ccccc2)c2ccc(OCCN3CCN(CCCNc4c5c(nc6ccccc46)CCCC5)CC3)cc2o1	7.59 ×10⁻⁶ cm/s
